From US20240277653A1, “USE OF FURANCARBOXYLIC ACIDS IN THE PREPARATION OF ADDITIVES FOR ANIMAL FEEDS” (ANIPHA TECHNOLOGIES PTY LTD, priority 2021, published 2024)

What was measured:
weaned piglets = assay: Effects of furancarboxylic acids on performance of weaned piglets; format: in vivo, Duroc-landrace-yorkshire swine; details: 65-day-old pigs, basal diet comprising 2000 ppm test article, 28 days, mean
From the text: A total of 120 65-day-old Duroc-landrace-yorkshire swine with similar body weight were randomly divided into 4 groups, each with 3 replicates, half male and female, […]. The pigpen and utensils were disinfected before the test. During the period of test, pigs were kept in separate pens under the same feeding and management conditions. During the test, the test pigs were fed with food and water ad libitum, and were fed twice a day. The test groups are shown in Table 1, among which, group I was the control group, and was only fed with the basal diet; test groups II, III and IV were fed with the basal diet comprising 2000 ppm of a compound of furancarboxylic acids shown in Table 1, respectively. […] The test lasted 28 days, and the performances of the test pigs, for example, the average daily feed intake (ADFI, g/d*pig), average daily weight gain (ADG, g/d*pig) and feed conversion ratio (FCR) of each pig were counted.

[1] = test system: yellow-feathered broilers; assay: Use of furancarboxylic acids in a feed for chicken (broiler performance); format: in vivo; details: 1-day-old broilers, basal diet comprising 1000 ppm test article, 20 days, mean
From the text: This experiment adopted a single-factor randomization design. 480 1-day-old broilers with an average body weight of 50 g were selected and randomly divided into 4 groups, with 6 replicates in each group, half male and female, 20 yellow-feathered broilers per replicate. The chicken house and utensils were disinfected before the test. During the period of test, broilers were kept in cages under the same feeding and management conditions. The basal diet is mainly based on corn-soybean meal, and other antioxidants and growth promoters are not added during the whole feeding. The test groups are shown in Table 2, among which, group I was the control group, and was only fed with the basal diet; test groups II, III and IV were fed with the basal diet comprising 1000 ppm of a compound of furancarboxylic acids shown in Table 2, respectively. The test lasted 20 days, and the test broilers were fed with food and water ad libitum, and were fed twice a day. Test broilers in each replicate were weighed at 21 days of age (stop feeding for 12 hours and keep water). The feed consumption of the test broilers was counted, and the average daily feed intake (ADFI, g/d*broiler), average daily weight gain (ADG, g/d*broiler) and feed conversion ratio (FCR) of each test broiler were calculated.

grass carp fingerlings = assay: Use of furancarboxylic acids in a feed for fish (grass carp growth-promoting test); format: in vivo; details: 500 ppm in test feed, 8 weeks; for Weight gain: 100×(final−initial)/initial weight; for FCR (feed conversion rate): feed intake/weight gain
Experimental: Test fish: The test fish used were the healthy and lively grass carp fingerlings of the same year and were reared in a large cage (4×2×1.5 m^3) for 4 weeks before being used for formal breeding tests. The experimental system was a small floating cage (with size of 1.1×1.1×1.1 m^3); each small cage is equipped with a bubbling head, and bubbling 24 hours a day. The small cages and the temporary cages were placed in a test facility, a 3500 m^2 pond, the pond depth was about 1.5 m, and the pond water was fully aerated bottom water. During the test, 240 grass carps that had been starved for 1 day were randomly divided into 3 groups, each group was provided with 4 replicates, and 20 fish were placed in each replicate. Each replicate was weighed and placed into 12 cages, respectively fed with a test feed supplemented with a compound of furancarboxylic acids.
Test feed: The test feed was prepared according to the formula in Table 3, and 500 ppm of a compound of furancarboxylic acids were added to different test groups according to Table 4. The feedstuff used was ultrafinely grinded and then passed through the Jiangsu Muyang extruder to make a floating extruded feed with a particle size of 3 mm. The mold release temperature was 130° C., and 3% soybean oil was sprayed externally through the oil injection equipment, and sealed in a cool place for use.
Procedures: The experiment adopts artificial food restriction feeding, the feeding amount is adjusted once a week, the feeding level (based on the initial body weight) of each group is exactly the same, feeding twice a day (at 7:30 am and 15:00 pm), and the total feeding amount is 580 g per replicate. The test lasted 8 weeks. The water quality was monitored regularly during the test. The water temperature was 26.88±3.08° C., with DO>5.0 mg O L^−1, pH 7.8, ammonia nitrogen <0.50 mg N L^−1, and nitrite nitrogen <0.05 mg N L^−1 during the whole breeding process.
Parameter statistics: During the test, the fish in each cage were weighed as a whole 1 day of stopping feeding, and their weight gain (WG, %), feed conversion rate (FCR) and survival rate (SR, %) were calculated as follows:
Weight gain (WG, %)=100×(average final weight−average initial weight)/average initial weight;
Feed conversion rate (FCR)=feed intake/weight gain of fish;
Survival rate (SR, %)=100×number of fish at the end of the experiment/number of fish at the beginning of the experiment.

Structure (SMILES) | ADFI (average daily feed intake) (weaned piglets) | ADG (average daily weight gain) (weaned piglets) | FCR (feed conversion ratio) (weaned piglets) | ADFI (average daily feed intake) [1] | ADG (average daily weight gain) [1] | FCR (feed conversion ratio) [1] | Average final weight (grass carp fingerlings) | SR (survival rate) (grass carp fingerlings) | Weight gain (grass carp fingerlings) | FCR (feed conversion rate) (grass carp fingerlings)
O=C(O)c1coc(C(=O)O)c1 [2,4-Furandicarboxylic acid] | 1263 g/d*pig | 507 g/d*pig | 2.490 | 36.5 g/d*broiler | 17.4 g/d*broiler | 2.10 | – | – | – | –
O=C(O)c1ccco1 [2-Furancarboxylic acid] | 1274 g/d*pig | 512 g/d*pig | 2.489 | 35.2 g/d*broiler | 16.9 g/d*broiler | 2.08 | 586.87 g | 82.50% | 134.96% | 1.48
O=C(O)c1ccoc1 [3-Furancarboxylic acid] | 1240 g/d*pig | 498 g/d*pig | 2.491 | 34.0 g/d*broiler | 16.4 g/d*broiler | 2.07 | 589.33 g | 83.75% | 138.98% | 1.48
